From US20070015723A1, “Antiviral oligonucleotides having a conserved G4 core sequence” (priority 1992, published 2007)
“And” between values parts separate entries of the source, which are not always exact repeats. Equal values may be shown once. Strand notation (5' to 3'): a small letter for the sugar, then the base; units joined by * are phosphorothioate-linked, units joined directly phosphodiester-linked; [ ] holds rarer units or linkages, { } end groups; capitals alone tell only the bases. {Fluor} = fluorescein moiety via fluorescein-labeled amidite; d = 2'-deoxy (DNA)

Assays:
[1] = test system: HSV-1 (KOS); test: HSV-1 infection ELISA assay; assay type: cell-based
[2] = molecular target: T1, human type II phospholipase A2 (Homo sapiens, UniProt P14555); test: Human type II phospholipase A2 enzyme assay (3H-oleic acid labelled E. coli substrate); assay type: biochemical; conditions: 1 μM
T1 sequence (P14555 21-144): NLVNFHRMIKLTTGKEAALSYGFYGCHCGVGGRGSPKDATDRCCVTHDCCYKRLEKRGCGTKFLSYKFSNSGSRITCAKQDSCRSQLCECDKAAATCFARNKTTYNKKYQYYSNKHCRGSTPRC

[3] = HSV-1 (KOS strain), Table 9, some in duplicate
[4] = 50% inhibition of HSV replication relative to control infected cells, Table 1

## ISIS 4350: GACGGTCAAGGGGAGGGTTGG, phosphorothioate, SEQ ID NO 129 (GACGGTCAAGGGGAGGGTTGG; all phosphorothioate, sugars by position and methylation of C not given here)
[1]; [3]
  EC50: 0.25 µM

## ISIS 5295: GTT GGA GAC CGG GIT TGG GG, Inosine #14, SEQ ID NO 138 (GTT GGA GAC CGG GITTGG GG; inosine at 14, as printed in the source, key not given here)
[1]; Table 12, inosine-substituted
  EC50: > 3 µM

## ISIS 5302: CAC GAA AGG CAT GAC, P = S, SEQ ID NO 7 (CACGAAAGGCATGAC; all phosphorothioate, sugars by position and methylation of C not given here)
[1]; [4]
  EC50: > 3 µM

## ISIS 4693: G T ATA G AAG GGC TCC, P = S, SEQ ID NO 52 (GTATAGAAGGGCTCC; all phosphorothioate, sugars by position and methylation of C not given here)
[1]; [4]
  EC50: > 3 µM

## ISIS 4896: GC CGA TGC GGG G, P = S, SEQ ID NO 20 (GCCGATGCGGGG; all phosphorothioate, sugars by position and methylation of C not given here)
[1]; [4]
  EC50: 1.2 µM

## ISIS 5296: GTT GGA GAC CGG GGT TGG IG, Inosine #19, SEQ ID NO 139 (GTT GGA GAC CGG GGTTGG IG; inosine at 19, as printed in the source, key not given here)
[1]; Table 12, inosine-substituted
  EC50: 0.8 µM

## ISIS 4349: GGTTGGAGACCGGGGTTGGG, phosphorothioate, SEQ ID NO 126 (GGTTGGAGACCGGGGTTGGG; antisense; all phosphorothioate, sugars by position and methylation of C not given here)
[1]; [3]
  EC50: 0.25 µM

## ISIS 4894: CAT CGC CGA TCG GGG, P = S, SEQ ID NO 18 (CATCGCCGATCGGGG; all phosphorothioate, sugars by position and methylation of C not given here)
[1]; [4]
  EC50: > 3 µM

## ISIS 4393: GGGGTTGGGGAATGAATCCC, phosphorothioate, SEQ ID NO 124 (GGGGTTGGGGAATGAATCCC; antisense; all phosphorothioate, sugars by position and methylation of C not given here)
[1]; [3]
  EC50: 0.2 µM

## ISIS 4890: GCC AGG GGA ATC CGT, P = S, SEQ ID NO 15 (GCCAGGGGAATCCGT; all phosphorothioate, sugars by position and methylation of C not given here)
[1]; [4]
  EC50: 0.75 µM and 0.7 µM

## ISIS 4694: TA G AAG GGC TCC, P = S, SEQ ID NO 53 (TAGAAGGGCTCC; all phosphorothioate, sugars by position and methylation of C not given here)
[1]; [4]
  EC50: > 3 µM

## ISIS 5356: CGG GGT TGG GG, P = S, SEQ ID NO 25 (CGGGGTTGGGG; all phosphorothioate, sugars by position and methylation of C not given here)
[1]; [4]
  EC50: 0.7 µM

## ISIS 4895: CGC CGA TGC GGG GCG, P = S, SEQ ID NO 19 (CGCCGATGCGGGGCG; all phosphorothioate, sugars by position and methylation of C not given here)
[1]; [4]
  EC50: 0.55 µM

## ISIS 5310: GTT GGA GAC CGG GGT TGG GI, Inosine #20, SEQ ID NO 141 (GTT GGA GAC CGG GGTTGG GI; inosine at 20, as printed in the source, key not given here)
[1]; Table 12, inosine-substituted
  EC50: 0.4 µM

## ISIS 4111: CCTGGATGATGCTGGGGTAC, phosphorothioate, SEQ ID NO 131 (CCTGGATGATGCTGGGGTAC; antisense; all phosphorothioate, sugars by position and methylation of C not given here)
[1]; [3]
  EC50: 0.6 µM

## ISIS 5339: sequence of 1082 (SEQ ID NO 134) with a fluorescein moiety conjugated to the 5′ end (GCCGAGGTCCATGTCGTACGC; DNA, 5' {Fluor}, backbone not given here)
[1]; Table 13, fluorescein-conjugated
  EC50: 0.65 µM

## ISIS 4664: GGG T GGG T ATA G AAG G GC, P = S, SEQ ID NO 48 (GGGTGGGTATAGAAGGGC; all phosphorothioate, sugars by position and methylation of C not given here)
[1]; [4]
  EC50: 0.2 µM

## ISIS 4889: AGG GGA ATC CGT CAT, P = S, SEQ ID NO 14 (AGGGGAATCCGTCAT; all phosphorothioate, sugars by position and methylation of C not given here)
[1]; [4]
  EC50: 2 µM

## ISIS 4872: GGC GGG ACT ACG GGG, P = S, SEQ ID NO 11 (GGCGGGACTACGGGG; all phosphorothioate, sugars by position and methylation of C not given here)
[1]; [4]
  EC50: 1.9 µM and 1.7 µM

## ISIS 4874: AGG CAT GAC CGG GGC, P = S, SEQ ID NO 3 (AGGCATGACCGGGGC; all phosphorothioate, sugars by position and methylation of C not given here)
[1]; [4]
  EC50: 1.1 µM and 0.83 µM

## ISIS 4435: GGGGAGACCGAAACCGCAAA, phosphorothioate, SEQ ID NO 130 (GGGGAGACCGAAACCGCAAA; antisense; all phosphorothioate, sugars by position and methylation of C not given here)
[1]; [3]
  EC50: 0.22 µM

## ISIS 4342: TTGGAGACCGGGGTTGGGGA, phosphorothioate, SEQ ID NO 128 (TTGGAGACCGGGGTTGGGGA; antisense; all phosphorothioate, sugars by position and methylation of C not given here)
[1]; [3]
  EC50: 0.2 µM

## ISIS 4346: GAGGTGGGCTTCGGTGGTGA, phosphorothioate, SEQ ID NO 123 (GAGGTGGGCTTCGGTGGTGA; antisense; all phosphorothioate, sugars by position and methylation of C not given here)
[1]; [3]
  EC50: 0.5 µM

## ISIS 4341: TGGAGACCGGGGTTGGGGAA, phosphorothioate, SEQ ID NO 127 (TGGAGACCGGGGTTGGGGAA; antisense; all phosphorothioate, sugars by position and methylation of C not given here)
[1]; [3]
  EC50: 0.2 µM

## ISIS 5309: GTT GGA GAC CGI GGT TGG GG, Inosine #12, SEQ ID NO 140 (GTT GGA GAC CGI GGTTGG GG; inosine at 12, as printed in the source, key not given here)
[1]; Table 12, inosine-substituted
  EC50: > 3 µM

## ISIS 4671: GGG T GGG T ATA GAA G, P = S, SEQ ID NO 49 (GGGTGGGTATAGAAG; all phosphorothioate, sugars by position not given here)
[1]; [4]
  EC50: 0.4 µM

## ISIS 4885: A GAC CGG GGT TGG GG, P = S, SEQ ID NO 24 (AGACCGGGGTTGGGG; all phosphorothioate, sugars by position and methylation of C not given here)
[1]; [4]
  EC50: 0.42 µM and 0.51 µM

## ISIS 4692: T GGG T ATA G AAG GGC TCC, P = S, SEQ ID NO 51 (TGGGTATAGAAGGGCTCC; all phosphorothioate, sugars by position and methylation of C not given here)
[1]; [4]
  EC50: 1.5 µM

## ISIS 3468: GGGACTCAGCAACGAGGGGTG, phosphorothioate, SEQ ID NO 65 (dG*dG*dG*dA*dC*dT*dC*dA*dG*dC*dA*dA*dC*dG*dA*dG*dG*dG*dG*dT*dG)
[2]; Table 4
  % Inhibition (1 μM): 97.5%

## ISIS 5365: GA GAC CGG GGT TGG GG, P = S, SEQ ID NO 23 (GAGACCGGGGTTGGGG; all phosphorothioate, sugars by position and methylation of C not given here)
[1]; [4]
  EC50: 0.47 µM

## ISIS 3659: TGCTCCTCCTTGGTGGCTCTC, phosphorothioate, SEQ ID NO 84 (dT*dG*dC*dT*dC*dC*dT*dC*dC*dT*dT*dG*dG*dT*dG*dG*dC*dT*dC*dT*dC)
[2]; Table 4
  % Inhibition (1 μM): 38.2%

## ISIS 4348: GGGTTGGAGACCGGGGTTGG, phosphorothioate, SEQ ID NO 125 (GGGTTGGAGACCGGGGTTGG; all phosphorothioate, sugars by position and methylation of C not given here)
[1]; [3]
  EC50: 0.4 µM

## ISIS 4112: GACTGGGGCGAGGTAGGGGT, phosphorothioate, SEQ ID NO 132 (GACTGGGGCGAGGTAGGGGT; antisense; all phosphorothioate, sugars by position and methylation of C not given here)
[1]; [3]
  EC50: 0.3 µM

## ISIS 4925: GTT GGA GAC CGG IGT TGG IG, Inosine #13, 19, SEQ ID NO 137 (GTT GGA GAC CGG IGTTGG IG; inosine at 13, 19, as printed in the source, key not given here)
[1]; Table 12, inosine-substituted
  EC50: 1.6 µM

## ISIS 4399: GTCCCGACTGGGGCGAGGAT, phosphorothioate, SEQ ID NO 133 (GTCCCGACTGGGGCGAGGAT; antisense; all phosphorothioate, sugars by position and methylation of C not given here)
[1]; [3]
  EC50: 0.25 µM

## ISIS 3633: GTAGGGATGGGAGTGAAGGAG, phosphorothioate, SEQ ID NO 83 (dG*dT*dA*dG*dG*dG*dA*dT*dG*dG*dG*dA*dG*dT*dG*dA*dA*dG*dG*dA*dG)
[2]; Table 4
  % Inhibition (1 μM): 58.5%

## TGG GTA TAG AAG GGC TCC: truncated version of ISIS 3196, SEQ ID NO 99 (dT*dG*dG*dG*dT*dA*dT*dA*dG*dA*dA*dG*dG*dG*dC*dT*dC*dC)
[2]; Table 5, two separate experiments
  % Inhibition (1 μM): 84.6%

## ISIS 3193: CCTGCAGTAGGCCTGGAAGGA, phosphorothioate, SEQ ID NO 64 (dC*dC*dT*dG*dC*dA*dG*dT*dA*dG*dG*dC*dC*dT*dG*dG*dA*dA*dG*dG*dA)
[2]; Table 4
  % Inhibition (1 μM): 22.6%
